Our source for the % of control and % of inhibition values is ChEMBL document CHEMBL5212743, “Selectivity Literature for EUbOPEN Chemogenomics Library wave 3” (2023).

Experiment [1] relates to Receptor-type tyrosine-protein kinase FLT3 (Homo sapiens), P36888 [K663Q]. Put plainly: Selectivity interaction (KinomeScan (DiscoverX)) EUB0000274bCl FLT3. As to conditions: at 1 µM.
Experiment [2] deals with Ribosomal protein S6 kinase beta-1 (Homo sapiens) (UniProt P23443). Description: Selectivity interaction (KinomeScan (DiscoverX)) EUB0000274bCl RPS6KB1. The conditions noted are these: at 1 µM.
Sequence of Ribosomal protein S6 kinase beta-1 (Homo sapiens) (P23443 whole entry, looked up): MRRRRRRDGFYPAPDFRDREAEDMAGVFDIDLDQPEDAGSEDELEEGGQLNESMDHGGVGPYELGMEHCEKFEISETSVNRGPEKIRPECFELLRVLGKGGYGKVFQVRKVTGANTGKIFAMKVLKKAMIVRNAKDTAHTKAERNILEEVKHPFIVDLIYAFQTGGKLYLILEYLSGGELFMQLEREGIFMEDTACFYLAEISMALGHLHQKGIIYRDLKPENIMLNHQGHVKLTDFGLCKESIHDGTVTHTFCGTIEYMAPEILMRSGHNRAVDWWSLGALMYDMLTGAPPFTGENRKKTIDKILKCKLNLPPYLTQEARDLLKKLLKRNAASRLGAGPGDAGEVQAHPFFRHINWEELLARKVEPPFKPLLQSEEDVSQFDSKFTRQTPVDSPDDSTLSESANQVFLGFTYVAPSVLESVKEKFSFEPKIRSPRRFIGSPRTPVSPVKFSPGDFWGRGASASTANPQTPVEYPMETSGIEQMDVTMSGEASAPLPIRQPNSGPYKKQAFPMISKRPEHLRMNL
The target in experiment [3] is T1, Dual specificity tyrosine-phosphorylation-regulated kinase 1B (Homo sapiens, UniProt Q9Y463). Description: Selectivity interaction (KinomeScan (DiscoverX)) EUB0000733a DYRK1B. The conditions noted are these: at 1 µM.
T1 sequence (Q9Y463 whole entry, looked up, canonical isoform): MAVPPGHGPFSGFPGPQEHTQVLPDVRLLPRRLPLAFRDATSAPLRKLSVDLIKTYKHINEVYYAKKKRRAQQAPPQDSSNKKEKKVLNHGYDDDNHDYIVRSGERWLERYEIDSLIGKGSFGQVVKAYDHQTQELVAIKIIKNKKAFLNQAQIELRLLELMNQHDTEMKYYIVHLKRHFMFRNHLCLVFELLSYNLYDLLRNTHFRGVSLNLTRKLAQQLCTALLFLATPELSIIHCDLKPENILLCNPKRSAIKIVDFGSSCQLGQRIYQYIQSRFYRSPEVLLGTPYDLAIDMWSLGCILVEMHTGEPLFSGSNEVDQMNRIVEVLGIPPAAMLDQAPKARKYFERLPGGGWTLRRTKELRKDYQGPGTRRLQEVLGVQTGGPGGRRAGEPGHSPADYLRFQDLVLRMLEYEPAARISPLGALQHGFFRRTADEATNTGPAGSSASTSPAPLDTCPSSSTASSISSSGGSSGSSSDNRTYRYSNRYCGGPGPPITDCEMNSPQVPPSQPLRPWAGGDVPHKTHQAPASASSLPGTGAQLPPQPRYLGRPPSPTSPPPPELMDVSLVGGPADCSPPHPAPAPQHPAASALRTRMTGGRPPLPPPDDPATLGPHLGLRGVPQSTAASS
The target of experiment [4] is Phosphatidylinositol 4,5-bisphosphate 3-kinase catalytic subunit alpha isoform (Homo sapiens, UniProt P42336). Description: Selectivity interaction (KinomeScan (DiscoverX)) EUB0000706a PIK3CA. As to conditions: at 1 µM.
Sequence of Phosphatidylinositol 4,5-bisphosphate 3-kinase catalytic subunit alpha isoform (P42336 whole entry, canonical isoform): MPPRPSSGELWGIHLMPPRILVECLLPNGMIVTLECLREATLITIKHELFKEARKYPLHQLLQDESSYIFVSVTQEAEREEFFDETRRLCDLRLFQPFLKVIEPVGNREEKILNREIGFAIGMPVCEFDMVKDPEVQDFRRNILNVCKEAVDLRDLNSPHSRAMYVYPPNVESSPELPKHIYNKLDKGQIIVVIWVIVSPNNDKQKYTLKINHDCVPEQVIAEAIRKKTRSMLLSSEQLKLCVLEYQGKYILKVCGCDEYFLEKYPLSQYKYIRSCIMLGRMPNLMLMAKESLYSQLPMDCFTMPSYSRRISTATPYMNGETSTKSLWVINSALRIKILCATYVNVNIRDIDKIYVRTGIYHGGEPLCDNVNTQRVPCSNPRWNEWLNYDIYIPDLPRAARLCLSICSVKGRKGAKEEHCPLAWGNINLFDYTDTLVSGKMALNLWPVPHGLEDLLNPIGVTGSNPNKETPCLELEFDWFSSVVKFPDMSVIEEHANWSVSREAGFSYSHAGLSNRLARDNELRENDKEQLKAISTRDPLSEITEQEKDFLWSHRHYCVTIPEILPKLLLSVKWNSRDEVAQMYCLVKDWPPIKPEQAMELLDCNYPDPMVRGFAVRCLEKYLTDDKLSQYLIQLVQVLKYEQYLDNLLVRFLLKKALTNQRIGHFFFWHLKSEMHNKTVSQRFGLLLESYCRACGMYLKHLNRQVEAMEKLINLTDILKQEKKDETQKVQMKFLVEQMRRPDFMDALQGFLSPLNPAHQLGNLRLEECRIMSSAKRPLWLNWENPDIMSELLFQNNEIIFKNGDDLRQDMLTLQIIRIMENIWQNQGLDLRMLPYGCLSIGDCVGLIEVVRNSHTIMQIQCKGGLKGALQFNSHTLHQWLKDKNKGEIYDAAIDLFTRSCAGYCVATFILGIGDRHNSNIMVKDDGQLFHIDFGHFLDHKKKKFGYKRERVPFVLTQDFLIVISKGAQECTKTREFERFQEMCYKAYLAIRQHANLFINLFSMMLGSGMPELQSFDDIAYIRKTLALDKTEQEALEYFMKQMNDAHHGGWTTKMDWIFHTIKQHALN
The target of experiment [5] is T2, Tyrosine-protein kinase JAK3 (Homo sapiens) (UniProt P52333).
T2 sequence (whole entry): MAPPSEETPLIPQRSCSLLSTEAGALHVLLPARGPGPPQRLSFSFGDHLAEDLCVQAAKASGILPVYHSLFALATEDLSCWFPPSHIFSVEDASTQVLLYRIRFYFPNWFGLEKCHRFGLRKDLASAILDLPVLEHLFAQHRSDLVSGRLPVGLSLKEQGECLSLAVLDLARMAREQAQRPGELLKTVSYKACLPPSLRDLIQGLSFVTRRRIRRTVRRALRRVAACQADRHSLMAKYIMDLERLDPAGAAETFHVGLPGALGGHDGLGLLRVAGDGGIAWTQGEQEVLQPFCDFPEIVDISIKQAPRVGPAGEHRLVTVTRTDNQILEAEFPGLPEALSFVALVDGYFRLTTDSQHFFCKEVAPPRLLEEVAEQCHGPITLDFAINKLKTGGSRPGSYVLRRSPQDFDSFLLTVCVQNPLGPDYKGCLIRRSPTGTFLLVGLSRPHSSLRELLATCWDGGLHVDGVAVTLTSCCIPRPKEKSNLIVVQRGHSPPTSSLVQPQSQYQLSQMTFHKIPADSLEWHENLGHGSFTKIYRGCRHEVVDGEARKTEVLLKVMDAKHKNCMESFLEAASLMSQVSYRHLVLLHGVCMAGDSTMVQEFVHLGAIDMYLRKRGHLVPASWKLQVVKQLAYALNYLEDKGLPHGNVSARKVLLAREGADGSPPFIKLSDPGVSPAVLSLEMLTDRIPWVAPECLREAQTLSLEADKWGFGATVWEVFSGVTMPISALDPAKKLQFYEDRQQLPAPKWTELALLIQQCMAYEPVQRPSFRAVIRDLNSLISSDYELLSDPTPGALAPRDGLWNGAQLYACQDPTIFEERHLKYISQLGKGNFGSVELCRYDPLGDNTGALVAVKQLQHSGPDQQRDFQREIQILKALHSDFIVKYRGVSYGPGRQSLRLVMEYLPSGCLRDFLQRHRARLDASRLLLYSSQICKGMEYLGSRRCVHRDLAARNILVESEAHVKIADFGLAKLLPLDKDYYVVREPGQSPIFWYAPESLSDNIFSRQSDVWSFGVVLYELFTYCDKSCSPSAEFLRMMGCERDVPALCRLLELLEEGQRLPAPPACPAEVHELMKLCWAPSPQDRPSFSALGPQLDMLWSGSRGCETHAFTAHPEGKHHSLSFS
Description: Selectivity interaction (KinomeScan (DiscoverX)) EUB0000706a JAK3. As to conditions: at 1 µM.

In experiment [6] the target is T3, Serine/threonine-protein kinase TAO3 (Homo sapiens) (UniProt Q9H2K8).
T3 sequence (whole entry): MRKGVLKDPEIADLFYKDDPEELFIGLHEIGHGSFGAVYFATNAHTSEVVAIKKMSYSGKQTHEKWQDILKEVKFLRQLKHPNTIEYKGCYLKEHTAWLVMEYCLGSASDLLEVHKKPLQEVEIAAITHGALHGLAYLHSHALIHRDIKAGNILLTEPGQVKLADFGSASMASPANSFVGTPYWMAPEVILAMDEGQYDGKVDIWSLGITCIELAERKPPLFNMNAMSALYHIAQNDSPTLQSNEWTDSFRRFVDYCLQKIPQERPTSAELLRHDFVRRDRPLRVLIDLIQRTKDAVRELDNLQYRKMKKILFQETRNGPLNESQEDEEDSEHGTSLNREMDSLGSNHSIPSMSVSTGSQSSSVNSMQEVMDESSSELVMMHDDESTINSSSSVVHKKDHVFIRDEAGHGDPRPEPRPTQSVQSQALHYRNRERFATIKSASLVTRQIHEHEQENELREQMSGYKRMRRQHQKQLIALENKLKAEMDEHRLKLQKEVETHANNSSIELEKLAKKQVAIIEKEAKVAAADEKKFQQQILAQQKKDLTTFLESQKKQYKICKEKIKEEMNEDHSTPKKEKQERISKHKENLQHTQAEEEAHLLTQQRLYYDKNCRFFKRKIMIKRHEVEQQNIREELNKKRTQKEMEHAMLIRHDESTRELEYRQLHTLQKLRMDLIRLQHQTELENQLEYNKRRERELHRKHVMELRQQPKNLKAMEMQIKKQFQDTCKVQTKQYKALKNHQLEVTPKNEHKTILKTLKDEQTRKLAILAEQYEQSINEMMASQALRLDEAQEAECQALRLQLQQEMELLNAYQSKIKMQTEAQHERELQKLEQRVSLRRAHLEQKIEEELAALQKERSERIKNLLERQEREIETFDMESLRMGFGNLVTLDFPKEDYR
Put plainly: Selectivity interaction (KinomeScan (DiscoverX)) EUB0000706a TAOK3. The conditions noted are these: at 1 µM.

Experiment [7] has as its target Ribosomal protein S6 kinase beta-1 (Homo sapiens) (UniProt P23443). Put plainly: Selectivity interaction (KinomeScan (DiscoverX)) EUB0000344a RPS6KB1. As to conditions: at 1 µM.
Experiment [8] addresses Kappa-type opioid receptor (Homo sapiens, UniProt P41145). Description: Selectivity interaction (GPCR panel (PDSP screen)) EUB0000344a OPRK1. The conditions noted are these: at 10 µM.
Experiment [9] deals with Receptor-type tyrosine-protein kinase FLT3 (Homo sapiens), P36888 [K663Q]. Put plainly: Selectivity interaction (KinomeScan (DiscoverX)) EUB0000344a FLT3. The conditions noted are these: at 1 µM.
Experiment [10] addresses Dual specificity tyrosine-phosphorylation-regulated kinase 1A (Homo sapiens, UniProt Q13627). Description: Selectivity interaction (KinomeScan (DiscoverX)) EUB0000313b DYRK1A. The conditions noted are these: at 1 µM.
The target in experiment [11] is T1, Dual specificity tyrosine-phosphorylation-regulated kinase 1B. Description: Selectivity interaction (KinomeScan (DiscoverX)) EUB0000313b DYRK1B. As to conditions: at 1 µM.

Sequence of Kappa-type opioid receptor (P41145 whole entry): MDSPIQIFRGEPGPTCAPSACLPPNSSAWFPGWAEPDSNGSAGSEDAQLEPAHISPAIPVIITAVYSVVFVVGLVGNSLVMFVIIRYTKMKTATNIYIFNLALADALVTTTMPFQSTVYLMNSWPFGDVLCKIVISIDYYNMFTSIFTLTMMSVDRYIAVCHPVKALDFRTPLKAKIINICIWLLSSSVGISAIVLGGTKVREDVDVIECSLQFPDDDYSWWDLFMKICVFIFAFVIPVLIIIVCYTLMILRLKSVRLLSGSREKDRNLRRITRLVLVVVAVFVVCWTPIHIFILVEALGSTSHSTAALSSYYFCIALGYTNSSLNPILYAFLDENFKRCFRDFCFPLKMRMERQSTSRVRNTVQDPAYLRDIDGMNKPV

In the case of `O=C(O)c1cc(-c2ccc(C3CCNCC3)cc2)c2ccc(-c3ccc(C(F)(F)F)cc3)cc2c1`, the % of control in experiment [1] is 30%; in experiment [2] it was 34%.
As for `FC(F)(F)c1ccc2c(c1)nc(-c1cccnc1)n2C1CC1`, in [3], the % of control turned out to be 53%.
Take `C[C@@H]1CN(c2cc(-c3nn(C)c4ccc(OC5(C)CC5)cc34)ncn2)C[C@H](C)O1`: the % of control in [4] turned out to be 32%; in experiment [5] it was 12%; in experiment [6], 35%.
`N#CC1(c2ccccn2)CCN(Cc2cc(C(=O)N3CCCC3)c(=O)n3ccccc23)CC1`: the % of control in experiment [7] stood at 34%; in experiment [9], 30%. Also, the % of inhibition in experiment [8] turned out to be 46.8%.
Regarding `CC(C)(O)c1cncc(-c2nc3ccc(F)cc3n2C2CC2)c1`, the % of control in [10] was found to be 48%; in [11] it was 44%.
